Converted amounts (≈) assume the structure as drawn.
Experiments:
L929 cells = test: CT50 cytotoxicity in L929 cells; conditions: pH 7 phosphate; Table 4
E. coli 25922 = test: MBC/MFC against E. coli 25922; format: cell-based; conditions: Escherichia coli, Table 4
C. albicans 10231 = test: MBC/MFC against C. albicans 10231; format: cell-based; conditions: Candida albicans, Table 4
S. aureus 29213 = test: MBC/MFC against S. aureus 29213; format: cell-based; conditions: Staphylococcus aureus, Table 4

SMILES | CT50 L929 cells (L929 cells) [mM] | MBC (E. coli 25922; pH 4 acetate) [µg/mL] | MBC (E. coli 25922; pH 7 phosphate) [µg/mL] | MFC (C. albicans 10231; pH 4 acetate) [µg/mL] | MFC (C. albicans 10231; pH 7 phosphate) [µg/mL] | MBC (S. aureus 29213; pH 4 acetate) [µg/mL] | MBC (S. aureus 29213; pH 7 phosphate) [µg/mL]
CC1(C)CN(CCO)C(=O)C(C)(C)N1Cl [Compound 39-108, 4-chloro-1-(2-hydroxyethyl)-3,3,5,5-tetramethylpiperazin-2-one] | 0.1 | 1 (≈ 4.26 µM) | 32 (≈ 136 µM) | 8 (≈ 34.1 µM) | 64 (≈ 273 µM) | 2 (≈ 8.52 µM) | 128 (≈ 545 µM)
COCCOCCOCC[N+](C)(C)CCN1CC(C)(C)N(Cl)C1=O [Compound 39-110, 2-(3-chloro-4,4-dimethyl-2-oxoimidazolidin-1-yl)-N-(2-(2-(2-methoxyethoxy)ethoxy)ethyl)-N,N-dimethylethanaminium 4-methylbenzenesulfonate] | 3.9 | 128 | 1020 | 256 | > 2050 | 128 | 2050
COCCOCCN1C(=O)C(C)(C)N(Cl)C1(C)C [Compound 39-112, 1-chloro-3-(2-(2-methoxyethoxy)ethyl)-2,2,5,5-tetramethylimidazolidin-4-one] | 0.16 | 4 (≈ 14.3 µM) | 128 (≈ 459 µM) | 8 (≈ 28.7 µM) | 1020 (≈ 3670 µM) | 8 (≈ 28.7 µM) | 128 (≈ 459 µM)
COCCOCCOCCCN1C(=O)C(C)(C)N(Cl)C1(C)C [Compound 39-114, 1-chloro-3-(3-(2-(2-methoxyethoxy)ethoxy)propyl)-2,2,5,5-tetramethylimidazolidin-4-one] | 0.24 | 8 (≈ 23.7 µM) | 256 (≈ 760 µM) | 8 (≈ 23.7 µM) | > 1020 | 4 (≈ 11.9 µM) | 256 (≈ 760 µM)
COCCOCCOCCOCCOCCOCCOCCOCCOCCOCCOCCOCCOCCOCCN1C(=O)C(C)(C)N(Cl)C1(C)C [Compound 39-116, 1-chloro-2,2,5,5-tetramethyl-3-(2,5,8,11,14,17,20,23,26,29,32,35,38,41-tetradecaoxatritetracontan-43-yl)imidazolidin-4-one] | 4.1 | 16 (≈ 19.8 µM) | 512 (≈ 634 µM) | 128 (≈ 159 µM) | > 2050 | 16 (≈ 19.8 µM) | 1020 (≈ 1270 µM)
COCCOCCOCCOCCOCCOCCOCCOCCOCCOCCOCCOCCOCCOCCOCCOCCOCCOCCOCCOCCOCCOCCOCCOCCOCCOCCOCCOCCOCCOCCOCCOCCOCCOCCOCCOCCOCCOCCOCCN1C(=O)C(C)(C)N(Cl)C1(C)C [Compound 39-118, 1-chloro-2,2,5,5-tetramethyl-3-(2,5,8,11,14,17,20,23,26,29,32,35,38,41,44, 47,50,53,56,59,62,65,68,71,74,77,80,83,86,89, 92,95,98,101,104,107,110,113,116-nonatriacontaoxaoctadecahectan-118-yl)imidazolidin-4-one] | 11.3 | 32 (≈ 16.8 µM) | 2050 (≈ 1070 µM) | 256 (≈ 134 µM) | > 2050 | 8 (≈ 4.19 µM) | 4100 (≈ 2150 µM)
CC1(C)C(CO)OC(=O)N1Cl (stereo not drawn) [Compound 39-122, 3-chloro-5-(hydroxymethyl)-4,4-dimethyloxazolidin-2-one] | 0.14 | 2 (≈ 11.1 µM) | 2 (≈ 11.1 µM) | > 512 | 1020 (≈ 5700 µM) | 4 (≈ 22.3 µM) | 4 (≈ 22.3 µM)
CN1CC(C)(CO)N(Cl)C1=O (stereo not drawn) [Compound 39-124, 3-chloro-4-(hydroxymethyl)-1,4-dimethylimidazolidin-2-one] | 0.33 | 16 (≈ 89.6 µM) | 8 (≈ 44.8 µM) | 8 (≈ 44.8 µM) | > 1020 | 16 (≈ 89.6 µM) | 32 (≈ 179 µM)
CC1(C)C(=O)N(CCCCO)C(C)(C)N1Cl [Compound 39-125, 1-chloro-3-(4-hydroxybutyl)-2,2,5,5-tetramethylimidazolidin-4-one] | 2.21 | 2 (≈ 8.04 µM) | 32 (≈ 129 µM) | 128 (≈ 515 µM) | > 1020 | 2 (≈ 8.04 µM) | 256 (≈ 1030 µM)
